Assay results published in patent publication US20070270418A1, “Inhibitors of P38 and Methods of Using the Same” (priority 2003, published 2007).
Where two headings read alike, the source gives them in different places.

Tests used:
[1] = molecular target: T1, p38α (Homo sapiens, UniProt Q16539); experiment: p38 MAP Kinase assay, ATF2 phosphorylation (ELISA); format: biochemical; settings: 40 μM ATP
T1 construct: p38 MAP Kinases are recombinant human full-length proteins with an amino-terminal GST fusion; GST (N); purchased Upstate (Charlottesville, Va.); host or cells: E. coli
Source text: Compounds of the invention are screened for the ability to inhibit ATF2 phosphorylation by p38 MAP Kinase in vitro. The ability of compounds to inhibit ATF2 phosphorylation in this in vitro assay is correlated with the inhibition of p38 MAP Kinase and TNFα expression in vivo, and is therefore an indicator of potential in vivo therapeutic activity (Raingeaud, J., et al, J. Biol. Chem., 270: 7420-7426, 1995, Brinkman, M. N., et al, J. Bil. Chem. 274: 30882-30886, 1999 and Fuchs, S. Y. et al, J. Biol. Chem. 275: 12560-12564, 2000).
All kinases and the substrate ATF2 are acquired from Upstate (Charlottesville, Va.). p38 MAP Kinases are recombinant human full-length proteins with an amino-terminal GST fusion, expressed in and purified from E. coli. ATF2 is a GST fusion protein containing amino acids 19-96 of human ATF2 expressed in E. coli. All proteins were aliquoted and stored at −80° C.
p38 MAP Kinase assays are performed using an assay buffer containing 25 mM HEPES, pH 7.5, 10 mM MgCl2, 2 mM DTT, 20 mM β-glycerophosphate, 0.1 mM Na3VO4, 40 μM ATP and 1.25 μM of ATF2, together with 6 ng of p38α protein, 12 ng p38β protein, 1.5 ng p38γ, or 0.4 ng JNK2α2. Compounds are serially diluted in DMSO and 2 μL of test compound at 25× final concentration is used. The vehicle control receives DMSO only. Test compounds are pre-incubated with 20 μl of enzyme in kinase buffer (25 mM HEPES, pH 7.5, 10 mM MgCl2, 2 mM DTT, 20 mM 3-glycerophosphate and 0.1 mM Na3VO4) at room temperature for 15 minutes. […] The reactions are incubated for 30 minutes at 37° C. and terminated by the addition of 18 μl of 200 mM EDTA. An ELISA method is used to measure the phosphorylation of ATF2 at Thr 69. High binding 96-well plates (Corning 3369) are coated with 50 μl of kinase reaction for 1 hour at 37° C. The coated plates are washed with 200 μl washing buffer (25 mM Tris HCl, pH 8.3, 192 mM glycine, 0.1% SDS and 0.05% Tween-20) three times. The plates are then washed three times with SuperBlock in TBS (Pierce, 37535). After blocking, plates are incubated with 50 μl of rabbit anti-phospho-ATF2 antibody (Cell Signaling, 9221 L, 1:500) for 30 minutes at 37° C. Plates are washed three times with washing buffer prior to incubation with 50 μl HRP-conjugated goat anti-rabbit antibody (Cell Signaling, 7074, 1:500) for 30 minutes at 37° C. Plates are then washed three times with washing buffer before incubation with 50 μl of Ultra TMB-ELISA (Pierce, 34028) for 8 minutes at room temperature. Finally, 50 μl of phosphoric acid (1 M) is added to stop reactions and plate absorbance is read at 450 nm on a SpectraMax 250 plate reader.

[2] = tested on: TNFα release from THP-1 cells; experiment: TNFα release from LPS-stimulated THP-1 cells; format: cell-based
Source text: Compounds of the invention are screened for the ability to inhibit TNFα and IL-1β release from THP-1 cells stimulated with lipopolysaccharide (LPS) in vitro. The ability of compounds to inhibit TNFα and IL-1β release in this in vitro assay is correlated with the inhibition of p38 activity and TNFα and IL-1β expression in vivo, and is therefore an indicator of potential in vivo therapeutic activity (Lee J. C. et al, Ann. N.Y. Acad. Sci. 696: 149-170, 1993 and Nature, 372: 739-746, 1994).
THP-1 cells from ATCC (TIB202) are maintained at 37° C., 5% CO2 in RPMI 1640 media (MediaTech, Herndon, Va.) containing 4.5 g/L glucose, supplemented with 10% fetal bovine serum, 1% penicillin/streptomycin and 50 μM β-mercaptoethanol.
Test compounds are initially dissolved in RPMI media with 1% DMSO (v/v). Compounds are then serially diluted in RPMI media for all subsequent dilutions. The assay is performed under sterile conditions. THP-1 cells at a culture density of 6-8×10^5 cells/ml are collected and resuspended in the RPMI media at 10^6 cells/ml. 100 μl of resuspended cells are added to each well, which contain 100 μl of a test compound. Test compounds are prepared at twice the final concentration. Final DMSO concentration is no more than 0.5% (v/v). Cells are preincubated with compound for 30 minutes at 37° C., 5% CO2 prior to stimulation with lipopolysaccharide (LPS) (Sigma L-2880, 4 mg/ml stock in PBS). The final LPS concentration in each well is 10 or 30 μg/ml for TNFα and IL-1β release, respectively. Unstimulated control cell suspensions receive PBS vehicle only. Cell mixtures are incubated for 18 or 48 hours for TNFα and IL-1β release, respectively. 150 μl of supernatants are taken and transferred to a fresh plate and stored at −20° C. until further analysis.

[3] = Homo sapiens, THP-1, 18 h, read-out: TNFα (THP-1) IC50 (nM)
[4] = Homo sapiens, THP-1, 18 h, LPS 10 μg/ml, 18 hours, read-out: TNFα (THP-1) IC50
[5] = LPS 10 μg/ml, 18 hours, read-out: TNFα (THP-1) IC50

T1 sequence (Q16539 whole entry, the tested form may be a part): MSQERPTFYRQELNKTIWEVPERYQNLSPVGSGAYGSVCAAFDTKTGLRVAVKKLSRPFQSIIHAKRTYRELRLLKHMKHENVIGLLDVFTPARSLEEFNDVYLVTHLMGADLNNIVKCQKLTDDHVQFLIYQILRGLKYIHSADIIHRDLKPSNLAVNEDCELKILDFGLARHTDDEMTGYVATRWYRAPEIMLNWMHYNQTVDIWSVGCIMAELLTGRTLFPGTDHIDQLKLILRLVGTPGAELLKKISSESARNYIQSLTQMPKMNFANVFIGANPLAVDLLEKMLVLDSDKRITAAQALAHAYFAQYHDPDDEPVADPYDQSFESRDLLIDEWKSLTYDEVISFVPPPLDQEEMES

| Compound | IC50 [1] | IC50 [2, 4] | IC50 [2, 5] | IC50 [2, 3] |
| --- | --- | --- | --- | --- |
| Clc1ccccc1-c1nc2occn2c1-c1ccnc(N[C@H]2CN3CCC2CC3)n1 [CCCIII] | 12.5 nM | – | – | 9 nM |
| Cc1ccccc1-c1nc2occn2c1-c1ccnc(N[C@H]2CN3CCC2CC3)n1 [CCCII] | 13.8 nM | – | – | 5.5 nM |
| Fc1ccc(-c2nc3occn3c2-c2ccnc(N[C@H]3CN4CCC3CC4)n2)c(F)c1 [CCCIV] | 3.8 nM | – | – | 1.7 nM |
| CC(=O)N1CCC(Nc2nccc(-c3c(-c4ccccc4Cl)nc4occn34)n2)CC1 [CCCI] | 2.3 nM | 38.5 nM | – | – |
| CN(C)CC(C)(C)CNc1nccc(-c2c(-c3cccc(C(F)(F)F)c3)nc3occn23)n1 [CCCVII] | 43.3 nM | 136 nM | – | – |
| CC(=O)N1CCC(Nc2nccc(-c3c(-c4ccccc4C)nc4occn34)n2)CC1 [CCCV] | 4.8 nM | 41 nM | – | – |
| FC(F)(F)c1cccc(-c2nc3occn3c2-c2ccnc(NC3CCNCC3)n2)c1 [CCCXIII] | 21.2 nM | 111 nM | – | – |
| CN1[C@@H]2CC[C@H]1C[C@@H](Nc1nccc(-c3c(-c4ccc(F)cc4F)nc4occn34)n1)C2 [CCCXII] | 2.6 nM | – | – | 1.2 nM |
| CS(=O)(=O)N1CCC(Nc2nccc(-c3c(-c4ccccc4Cl)nc4occn34)n2)CC1 [CCCXVIII] | 1 nM | 18.2 nM | – | – |
| Cc1ccccc1-c1nc2occn2c1-c1ccnc(NC2C[C@H]3CC[C@@H](C2)N3C)n1 (stereo partly drawn) [CCCXX] | 13.9 nM | – | – | 23.7 nM |
| CN1[C@@H]2CC[C@H]1C[C@@H](Nc1nccc(-c3c(-c4cccc(C(F)(F)F)c4)nc4occn34)n1)C2 [CCCX] | 9.3 nM | 47.9 nM | – | – |
| CC(C)[C@@H](CO)Nc1nccc(-c2c(-c3ccc(Br)cc3)nc3sccn23)n1 [CCI] | 75.7 nM | 101 nM | – | – |
| O=C(c1ccc(F)cc1)N1CCC(Nc2nccc(-c3c(-c4ccc(F)cc4)nc4sccn34)n2)CC1 [CCLII] | 2.02 nM | 21.9 nM | – | – |
| Fc1ccc(CN2CCC(Nc3nccc(-c4c(-c5ccc(F)cc5)nc5sccn45)n3)CC2)cc1 [CCLIV] | 30.2 nM | 345 nM | – | – |
| C[C@@H](Nc1nccc(-c2c(-c3ccc(F)cc3)nc3sccn23)n1)C(N)=O [CCLIX] | 22.2 nM | 47.7 nM | – | – |
| OC(CNc1nccc(-c2c(-c3ccc(F)cc3)nc3sccn23)n1)COc1ccccc1 (stereo not drawn) [CCLI] | 14.3 nM | 84.9 nM | – | – |
| O=C(Nc1ccc(F)cc1)N1CCC(Nc2nccc(-c3c(-c4ccc(F)cc4)nc4sccn34)n2)CC1 [CCLVI] | 1.07 nM | 9.68 nM | – | – |
| CC(C)[C@@H](CO)Nc1nccc(-c2c(-c3ccc(Br)cc3)nc3sccn23)n1 [CCLXXI] | 75.7 nM | – | 100 nM | – |
| CN(CCO)c1nccc(-c2c(-c3ccc(F)cc3)nc3occn23)n1 [XCVI] | 969 nM | – | – | – |

Continued, in another order:

| IC50 [1] | IC50 [2, 4] | IC50 [2, 5] | Compound | IC50 [2, 3] |
| --- | --- | --- | --- | --- |
| 1.3 nM | 6.5 nM | – | CC(=O)N1CCC(Nc2nccc(-c3c(-c4ccc(F)cc4Cl)nc4occn34)n2)CC1 [CCCIX] | – |
| 10 nM | 24 nM | – | Cc1ccccc1-c1nc2occn2c1-c1ccnc(NC2CCNCC2)n1 [CCCVIII] | – |
| 4.9 nM | 82.6 nM | – | CC(=O)N1CCC(Nc2nccc(-c3c(-c4cccc(C(F)(F)F)c4)nc4occn34)n2)CC1 [CCCVI] | – |
| 14.5 nM | 24.6 nM | – | Clc1ccccc1-c1nc2occn2c1-c1ccnc(NC2CCNCC2)n1 [CCCXIV] | – |
| 0.3 nM | 17.7 nM | – | CS(=O)(=O)N1CCC(Nc2nccc(-c3c(-c4ccc(F)cc4Cl)nc4occn34)n2)CC1 [CCCXIX] | – |
| 18 nM | 611 nM | – | CC(C)(C)OC(=O)N1CCC(Nc2nccc(-c3c(-c4cccc(C(F)(F)F)c4)nc4occn34)n2)CC1 [CCCXI] | – |
| 3 nM | 13.7 nM | – | CC(=O)N1CCC(Nc2nccc(-c3c(-c4ccc(F)cc4F)nc4occn34)n2)CC1 [CCCXVII] | – |
| 0.9 nM | 33.7 nM | – | CS(=O)(=O)N1CCC(Nc2nccc(-c3c(-c4cccc(C(F)(F)F)c4)nc4occn34)n2)CC1 [CCCXVI] | – |
| 26 nM | 55.9 nM | – | CC(C)[C@@H](CO)Nc1nccc(-c2c(-c3cccc(F)c3)nc3sccn23)n1 [CCIX] | – |
| 1.65 nM | 6.27 nM | – | CC(=O)N1CCC(Nc2nccc(-c3c(-c4ccc(F)cc4)nc4sccn34)n2)CC1 [CCLIII] | – |
| 57.7 nM | 643 nM | – | Fc1ccc(-c2nc3sccn3c2-c2ccnc(NCCN3CCN(Cc4ccccc4)CC3)n2)cc1 [CCLVIII] | – |
| 25.4 nM | 38.6 nM | – | CC(CN(C)C)Nc1nccc(-c2c(-c3ccc(F)cc3)nc3sccn23)n1 (stereo not drawn) [CCLVII] | – |
| 2.12 nM | 10.8 nM | – | CCNC(=O)N1CCC(Nc2nccc(-c3c(-c4ccc(F)cc4)nc4sccn34)n2)CC1 [CCLV] | – |
| 5.85 nM | 23.3 nM | – | CC(C)(CNC(=O)OC(C)(C)C)CNc1nccc(-c2c(-c3ccc(F)cc3)nc3sccn23)n1 [CCLXIII] | – |
| 29.8 nM | 196 nM | – | CC(C)(C)OC(=O)N1CCCC(Nc2nccc(-c3c(-c4ccc(F)cc4)nc4sccn34)n2)C1 (stereo not drawn) [CCLXII] | – |
| 7.26 nM | 27.5 nM | – | CC(C)(C)OC(=O)N1CCCC1CNc1nccc(-c2c(-c3ccc(F)cc3)nc3sccn23)n1 (stereo not drawn) [CCLXIV] | – |
| 1.31 nM | 3.08 nM | – | CS(=O)(=O)N1CCC(Nc2nccc(-c3c(-c4ccc(F)cc4)nc4sccn34)n2)CC1 [CCLXI] | – |
| 147 nM | – | 58.7 nM | Cc1ccc(-c2nc3sccn3c2-c2ccnc(N[C@H](CO)C(C)C)n2)cc1 [CCLXXVII] | – |
| – | > 10000 nM | – | COc1cccc(-c2nc3sccn3c2-c2nc(SC)ncc2-c2ccccc2)c1 [CCXXXIV] | – |
| 650 nM | – | – | CN1CCCC1CCNc1nccc(-c2c(-c3ccc(F)cc3)nc3occn23)n1 (stereo not drawn) [LXI] | – |
| 664 nM | – | – | Cc1csc(Nc2nccc(-c3c(-c4ccc(F)cc4)nc4occn34)n2)n1 [LXXII] | – |
| 529 nM | – | – | CSc1nc(Nc2nccc(-c3c(-c4ccc(F)cc4)nc4occn34)n2)n[nH]1 [LXXVII] | – |
| 3330 nM | – | – | CNCCNc1nccc(-c2c(-c3ccc(F)cc3)nc3occn23)n1 [XCII] | – |
| 866 nM | – | – | NC1CCN(c2nccc(-c3c(-c4ccc(F)cc4)nc4occn34)n2)CC1 [XC] | – |
| 4430 nM | – | – | CS(=O)(=O)c1nccc(-c2c(-c3ccc(F)cc3)nc3occn23)n1 [XI, 6-(4-fluorophenyl)-5-[2-(methylsulfonyl)pyrimidin-4-yl]imidazo[2,1-b][1,3]oxazole] | – |
| 13 nM | – | – | OCC(CO)Nc1nccc(-c2c(-c3ccc(F)cc3)nc3occn23)n1 [XIII] | – |
